From publication PMC9408872, “Harmicens, Novel Harmine and Ferrocene Hybrids: Design, Synthesis and Biological Activity” (International Journal of Molecular Sciences, 2022)

Tests used:
[1] = test system: P. falciparum 3D7 (CQ-sensitive) erythrocytic stages; assay: In vitro drug sensitivity assay (HRP2-ELISA) against erythrocytic stages, Pf3D7; type: cell-based; settings: for IC50: read-out: IC50 Pf3D7
Procedure: (§1) The in vitro activity of harmicens 20–37 against the erythrocytic stages of CQ-sensitive (Pf3D7) and multidrug-resistant (PfDd2) P. falciparum strains was evaluated following a previously described method (Table 1).
(§2) The antiplasmodial activity of harmicens 20–37 was evaluated against two strains of P. falciparum (3D7—CQ-sensitive, Dd2—multidrug-resistant) as previously described using the histidine-rich protein 2 (HRP2) assay. Briefly, 96-well plates were pre-coated with the tested compounds in a three-fold dilution before ring-stage parasites were added to complete the culture medium at a hematocrit of 1.5% and parasitemia of 0.05%. After three days of incubation at 37 °C, 5% CO2, and 5% oxygen, plates were frozen until HRP2-ELISA analysis. All compounds were evaluated in duplicate in at least two independent experiments. The IC50 was determined using a nonlinear regression analysis of log concentration–response curves using the drc-package v0.9.0 of R v2.6.1 (R Foundation, Vienna, Austria).

[2] = test system: P. falciparum Dd2 (multidrug-resistant) erythrocytic stages; assay: In vitro drug sensitivity assay (HRP2-ELISA) against erythrocytic stages, PfDd2; type: cell-based; settings: multidrug-resistant strain; three days incubation; mean ± SD; read-out: IC50 PfDd2
Procedure: as §1, §2

[3] = test system: HepG2 (hepatocellular carcinoma); assay: MTT cytotoxicity assay, HepG2; type: cell-based, human; settings: 72 h, MTT; mean ± SD; read-out: IC50 HepG2
Procedure: (§3) The parent compound harmine, as well as the reference drug 5-fluorouracil, were used as positive controls.
(§4) The experiments were carried out on five human cell lines purchased from American Type Culture Collection (ATCC): HepG2 (hepatocellular carcinoma; ATCC® HB-8065™), SW620 (colorectal adenocarcinoma; ATCC® CCL-227™), HCT116 (colorectal carcinoma; ATCC® CCL-247™), MCF-7 (breast adenocarcinoma; ATCC® HTB-22™), and Hek293T (embryonic kidney cells; ATCC® CRL-3216™). All cell lines were cultured as monolayers and maintained in Dulbecco’s Modified Eagle Medium (DMEM) (Capricorn Scientific, Ebsdorfergrund, Germany) supplemented with 10% fetal bovine serum (FBS) (Capricorn Scientific, Ebsdorfergrund, Germany), 100 U/mL penicillin, and 100 µg/mL streptomycin (Capricorn Scientific, Ebsdorfergrund, Germany) in a humidified atmosphere with 5% CO2 at 37 °C. Cells were seeded in 96-well plates (Corning, Durham, NC, USA) at 5000–7000 cells per well (depending on the cell-doubling time of a specific cell line) in 0.1 mL media and cultured for 24 h. The next day, the medium was aspirated, and cells were treated for 72 h. Only the compounds that led to more than a 50% reduction in mitochondrial metabolic activity at a concentration of 50 µM were selected for further analysis. The following concentrations of selected compounds were used: 25, 10, 5, and 1 µM. Working dilutions were freshly prepared on the day of the testing. A fresh growth medium was added to untreated control cells, which were defined as 100% viable. DMSO (0.13%) in DMEM was considered a negative control. 5-Fluorouracil (5-FU) and harmine were used as positive controls. At the end of treatment, the medium was removed, and cells were incubated for 1 h with 0.5 mg/mL MTT (Abcam, Cambridge, MA, USA) dissolved in serum-deprived DMEM. The MTT-containing medium was then removed, and 0.1 mL isopropanol was added per well to lyse cells and dissolve formazan. The optical density was measured at 570 nm using a microplate reader (VICTOR3, PerkinElmer, Waltham, MA, USA). Each test point was performed in triplicate. The absorbance was directly proportional to the cell viability. The IC50 values (concentration required to decrease viability by 50%) were calculated by using nonlinear regression on the sigmoidal dose–response plots and are expressed as mean ± SD.

[4] = test system: SW620 (colorectal adenocarcinoma); assay: MTT cytotoxicity assay, SW620; type: cell-based, human; settings: 72 h, MTT; mean ± SD; read-out: IC50 SW620
Procedure: as §3, §4

[5] = test system: HCT116 (colorectal carcinoma); assay: MTT cytotoxicity assay, HCT116; type: cell-based, human; settings: for IC50: 72 h, MTT, mean ± SD, read-out: IC50 HCT116; for SI (HCT116): selectivity index: ratio of IC50 Hek293T to IC50 HCT116
Procedure: as §3, §4

[6] = test system: MCF-7 (breast adenocarcinoma); assay: cells; settings: for IC50: read-out: IC50 MCF-7, 72 h, MTT, mean ± SD; for SI (MCF-7): selectivity index: ratio of IC50 Hek293T to IC50 MCF-7
Procedure: as §3, §4

[7] = test system: Hek293T (embryonic kidney cells); assay: MTT cytotoxicity assay, Hek293T; type: cell-based, human; settings: noncancer cell line; 72 h, MTT; mean ± SD; read-out: IC50 Hek293T
Procedure: as §3, §4

[8] = test system: HCT116 cells; assay: Cell cycle analysis (propidium iodide, flow cytometry); type: cell-based, human; settings: 3 µM and 6 µM
Procedure: To that end, the cells were treated for 24 and 48 h with 3 µM and 6 µM concentrations of each compound, which corresponded to 0.5 × IC50 and IC50 values obtained in the MTT assay after 72 h, respectively. Afterward, the DNA was stained with propidium iodide and subjected to flow cytometry analysis.
HCT116 cells were seeded onto 6-well plates (2 × 10^5 cells per well). After 24 h, the tested compounds 28 and 36 were added at two concentrations—3 µM and 6 µM. After 24 h and 48 h, the attached cells were trypsinized, combined with floating cells, washed with phosphate buffer saline (PBS), fixed with 70% ethanol, and stored at −20 °C. Immediately before analysis, the cells were washed two times with PBS, treated with 0.1 μg/μL of RNAse A, and stained for 1 h on ice with 50 μg/mL of propidium iodide. The stained cells were then analyzed using a BD FACScalibur flow cytometer (20,000 counts were measured). The percentage of cells in each cell cycle phase was determined using FlowJo software (TreeStar Inc., San Francisco, CA, USA). The tests were performed in duplicate and repeated in two separate experiments. The average values from duplicates from one representative experiment ± SD are presented.

[9] = CQ-sensitive strain, three days incubation, mean ± SD

Row | SMILES | IC50 [1, 9] [µM] | IC50 [2] [µM] | IC50 [6] [µM] | activity against MCF-7 relative to 5-FU (fold stronger) [6] | decrease in antiplasmodial activity against Pf3D7 relative to harmicene 23 ([1]; 28 (methylene bridge) versus its counterpart 23) [fold] | IC50 Pf3D7 [1, 9] | IC50 [3] [µM] | IC50 [4] [µM] | IC50 [5] [µM] | SI (HCT116) [5] | SI (MCF-7) [6] | IC50 [7] [µM] | effect on cell cycle distribution after 24 h [8] | effect on cell cycle distribution after 48 h ([8]; 48 h)
1 | Cc1nccc2c1[nH]c1cc(OCc3cn(C[c-]4cccc4)nn3)ccc12.[Fe+2].c1cc[cH-]c1 [Compound 28, 7-((1-(Ferrocenylmethyl)-1H-1,2,3-triazol-4-yl)methoxy)-1-methyl-9H-pyrido[3,4-b]indole] | > 56 | > 56 | > 50 |  | 370 | inactive at the highest concentration tested | > 50 | > 50 | 7.4 ± 0.4 | >6.8 | >1 | > 50 | statistically significant increase in cells in the G1 phase at both tested concentrations | pronounced G2/M cell cycle arrest
2 | Cc1nc(-c2cn(C[c-]3cccc3)nn2)cc2c1[nH]c1ccccc12.[Fe+2].c1cc[cH-]c1 [Compound 26, 3-(1-(Ferrocenylmethyl)-1H-1,2,3-triazol-4-yl)-1-methyl-9H-pyrido[3,4-b]indole] | 2.63 ± 0.27 | 4.02 ± 0.61 | 3.7 ± 0.2 | 3–6.5 fold |  |  | 12.3 ± 5 | 3.8 ± 0.4 | 35.2 ± 4.7 | 1.3 | 12.6 | 46.5 ± 1 |  | 
3 | [Fe+2].c1cc[cH-]c1.c1ccc2c(c1)[nH]c1c(Cn3cc(-[c-]4cccc4)nn3)nccc12 [Compound 20, 1-((4-Ferrocenyl-1H-1,2,3-triazol-1-yl)methyl)-9H-pyrido[3,4-b]indole] | 9.23 ± 1.96 | 11.2 ± 2.23 | 39.4 ± 7.9 |  |  |  | 43.9 ± 1.1 | > 50 | 29.4 ± 4.6 | >1.7 | >1.3 | > 50 |  | 

These reach a lower IC50 [1, 9]. Values come first.

Row | IC50 [1, 9] [µM] | IC50 [2] [µM] | IC50 [6] [µM] | activity against MCF-7 relative to 5-FU (fold stronger) [6] | SMILES | decrease in antiplasmodial activity against Pf3D7 relative to harmicene 23 ([1]; 28 (methylene bridge) versus its counterpart 23) [fold] | IC50 Pf3D7 [1, 9] | IC50 [3] [µM] | IC50 [4] [µM] | IC50 [5] [µM] | SI (HCT116) [5] | SI (MCF-7) [6] | IC50 [7] [µM] | effect on cell cycle distribution after 24 h [8] | effect on cell cycle distribution after 48 h ([8]; 48 h)
4 | 0.15 ± 0.05 | 1.02 ± 0.52 | 8 ± 0.2 |  | Cc1nccc2c1[nH]c1cc(OCCn3cc(-[c-]4cccc4)nn3)ccc12.[Fe+2].c1cc[cH-]c1 [Compound 23, 1-Methyl-7-(2-(4-ferrocenyl-1H-1,2,3-triazol-1-yl)ethoxy)-9H-pyrido[3,4-b]indole] |  |  | 9.5 ± 0.5 | 7.6 ± 0.1 | 38.6 ± 2.8 | 0.4 | 2.1 | 17.1 ± 1.8 |  | 
5 | 1.35 ± 0.28 | 2.31 ± 0.29 | > 50 |  | COc1ccc2c3ccnc(C)c3n(CCn3cc(-[c-]4cccc4)nn3)c2c1.[Fe+2].c1cc[cH-]c1 [Compound 24, 7-Methoxy-1-methyl-9-(2-(4-ferrocenyl-1H-1,2,3-triazol-1-yl)ethyl)-9H-pyrido[3,4-b]indole] |  |  | > 50 | > 50 | > 50 | >1 | >1 | > 50 |  | 
6 | 0.42 ± 0.02 | 1.53 ± 0.06 | 4.5 ± 0.3 |  | Cc1nccc2c1[nH]c1cc(OCCNC(=O)C[c-]3cccc3)ccc12.[Fe+2].c1cc[cH-]c1 [Compound 36, N-(2-((1-Methyl-9H-pyrido[3,4-b]indol-7-yl)oxy)ethyl)-2-ferrocenylacetamide] |  |  | 7.4 ± 0.5 | 4.2 ± 0.3 | 5.9 ± 1.3 | 1.4 | 1.9 | 8.4 ± 0.3 | G1 phase arrest only at a higher concentration | 
